Columns and labels:
[1] = test system: STZ-diabetic rats; assay: Diabetic neuropathy, mechanical allodynia (von Frey filaments); format: in vivo, rat; settings: 25 mg/kg, p.o., bid, x49 d
Experimental: Adult male Sprague Dawley (SD) rats weighing 250-300 gm (Charles River Laboratories, San Diego, Calif.) were used. The animal room was lighted artificially at a 12-hr light-dark cycle (from 7:00 A.M. to 7:00 P.M.) with water and food supply ad libitum. Animals were allocated randomly into groups. Forty-nine (49) days prior to the behavioral tests, rats received a bolus injection of STZ (75 mg/kg, i.v.). STZ was dissolved in 0.1 M sodium citrate buffer, pH 4.5 solution, at the concentration of 75 mg/ml. To ensure the development of hyperglycemia, their non-fasted levels of glucose in whole blood, obtained via tail veins, were evaluated, using a glocometer (Accucheck®, Roche Diagnostics, Palo Alto, Calif.), once a week. Animals failing to show hyperglycemic conditions (i.e., whole blood glucose>120 mg/dL) were removed from the study. Diabetic rats were treated orally with Compound 62 (5 mg/kg or 25 mg/kg, both bid) or vehicle (1 ml/kg, bid), starting the date of STZ-injection. Compound 62 was dissolved in vehicle, which is composed of 96% of 0.5% CMC and 4% of 10% Tween 80. As a control, a group of naive rats received oral Compound 62 (25 mg/kg, bid) or vehicle (1 ml/kg, bid) treatment. Each group had >12 rats. […]

[2] = test system: carrageenan-sensitized inflammatory model of rat; assay: Carrageenan-sensitized thermal hyperalgesia (Hargreaves test); format: in vivo; settings: 50 mg/kg oral; for PWL (thermal paw withdrawal latency), carrageenan paw: mean ± SEM
Experimental: In this experiment, animals were habituated to the test environment for 2 days. Each rat was individually placed on a transparent perplex glass floor, covered with a plastic box (10×10×18 cm), and allowed 0.5-1 hr to habituate. After the acclimation period, basal thermal withdrawal latency (PWL, time interval between heat stimulation and paw withdrawal) was measured by exposing the plantar surface of a rats hind paw to a beam of radiant heat generated from a focused projection bulb through a transparent perplex glass surface (Hargreaves test; Hargreaves, K. R., Dubner, R., Brown, F., Flores, C. & Joris, J.: A new and sensitive method for measuring thermal nociception in cutaneous hyperalgesia. Pain, 32: 77-88, 1988). The PWL was averaged from at least two trials separated by a 2 min interval. A timer was used to measure the withdrawal latency and a cut of time of 20-sec was used to prevent tissue damage. Before the test on STZ-diabetic rats, the intensity of the radiating heat was adjusted to the level that caused naive animal to withdraw its paw at around 10 seconds.
After a stable basal PWL was obtained, the animals were briefly anesthetized with isoflurane (2-5% to effect). One side of their hind paws received an intraplantar injection of lambda carrageenan (2 mg in 100 microliter sterile saline, Sigma, St. Louis, Mo.). The contralateral side received no injection and served as an intra-subject control. The animals were then returned to their home cages and transferred to the individual testing chambers for heat thermal hyperalgesic testing, 2.5 hr after carrageenan injection. 3-hr post-carrageenan injection, PWLs of both hind paws (i.e., ipsilateral and contralateral) were measured at several time points post-carrageenan injection (15-min to 24-hr).
For compound testing, rats were randomly enrolled into groups that, immediately after the 3-hr post-carrageenan PWL was obtained, received oral dosing of Compound 62 (50 mg/kg), Compound 63 (50 mg/kg), vehicle (1 ml/kg), or indomethacin (30 mg/kg). Compound 62 and Compound 63 were prepared as a suspension in vehicle (96% of 0.5% CMC and 4% of 10% Tween 80) while indomethacin was prepared as a 30 mg/ml in normal saline.

[3] = post-dosing time 0 min (3 hr post-carrageenan)

Row | SMILES | effect on PWT / reversal of allodynia vs vehicle (in words) [1] | PWT (von Frey), mechanical allodynia ([1]; mean ± SEM) [GRAMS] | effect on carrageenan-sensitized heat hyperalgesia compared to vehicle-treated carrageenan-paw (in words) [2] | PWL (thermal paw withdrawal latency), carrageenan paw [2, 3] [s] | PWL (thermal paw withdrawal latency), carrageenan paw ([2]; post-dosing time 15 min) [s] | PWL (thermal paw withdrawal latency), carrageenan paw ([2]; post-dosing time 120 min) [s] | PWL (thermal paw withdrawal latency), carrageenan paw ([2]; post-dosing time 240 min) [s] | PWL (thermal paw withdrawal latency), carrageenan paw ([2]; post-dosing time 1400 min) [s] | PWL (thermal paw withdrawal latency), carrageenan paw ([2]; post-dosing time 60 min) [s] | PWL (thermal paw withdrawal latency), carrageenan paw ([2]; post-dosing time 180 min) [s]
1 | CC(C)(C)/[N+]([O-])=C/c1ccc(S(C)(=O)=O)cc1 [Compound 62, N-tert-Butyl-C-[4-(methanesulfonyl)phenyl]nitrone] | significantly enhanced the PWT | 6.08 ± 0.94 | statistically significant effect | 4.65 ± 0.63 | 7.33 ± 1.43 | 7.55 ± 1.08 | 5.38 ± 1.11 | 5.33 ± 1.09 | – | –
2 | CC(C)(C)/[N+]([O-])=C/c1ccc(S(C)(=O)=O)cc1S(C)(=O)=O [Compound 63, N-tert-Butyl-C-(2,4-bis-methanesulfonylphenyl)nitrone] | – | – | statistically significant effect | 4.98 ± 0.85 | 4.93 ± 1.22 | – | – | 5.70 ± 0.71 | 4.15 ± 1.04 | 3.65 ± 0.64
